From patent US10919885B2, “Compounds and uses thereof” (Yumanity Therapeutics, Inc., priority 2018, dated 2021)

Biological target: human SCD1 (Homo sapiens (Human), UniProt O00767)
Assay: Yeast growth assay, strain expressing human SCD1 as the sole desaturase (reduced growth as surrogate for SCD inhibition)
Type: cell-based
Settings: yeast with OLE1 deleted expressing human SCD1 from a plasmid; growth read as OD600 after 40 h at 30° C.; top drug concentration 33.3 μM
Procedure: Strains expressing SCD1 or SCD5 as the sole desaturase, the human SCD1 and SCD5 genes were used to evaluate inhibition of SCD1/SCD5 using reduced growth as a surrogate for SCD inhibition. These yeast strains express human SCD1 or SCD5 from a plasmid harbored in a strain in which the yeast OLE1 gene is deleted.
All compound profiling experiments were performed using the same basic protocol. Yeast were cultured using standard techniques in complete synthetic media lacking uracil and containing yeast nitrogen base supplemented with 2% (w/v) glucose (SD-Ura) Starter cultures were inoculated in 3 mL SD-Ura media containing 0.01% tween and 0.2 mM palmitoleic and oleic acid. Cultures were incubated overnight in a 30° C. shaker incubator (225 rpm). Saturated morning cultures were centrifuged, washed in SD-Ura media lacking TWEEN-20 and fatty acids, and then diluted 1:20 in fresh SD-Ura media also lacking TWEEN-20 and fatty acids.
Compound administration was performed in two separate steps. First, 15 μL of SD-Ura was dispensed into clear 384-well assay plates using a MULTIDROP™ Combi reagent dispenser. […] The cultures described above were centrifuged and washed with media lacking TWEEN-20 or oleic and palmitoleic acids.
After yeast delivery, assay plates were incubated under humidified conditions at 30° C. for 40 h. Yeast growth was monitored by reading the OD600 of each well using a microplate reader (Perkin Elmer EnVision™).

Chain of human SCD1 (O00767 whole entry): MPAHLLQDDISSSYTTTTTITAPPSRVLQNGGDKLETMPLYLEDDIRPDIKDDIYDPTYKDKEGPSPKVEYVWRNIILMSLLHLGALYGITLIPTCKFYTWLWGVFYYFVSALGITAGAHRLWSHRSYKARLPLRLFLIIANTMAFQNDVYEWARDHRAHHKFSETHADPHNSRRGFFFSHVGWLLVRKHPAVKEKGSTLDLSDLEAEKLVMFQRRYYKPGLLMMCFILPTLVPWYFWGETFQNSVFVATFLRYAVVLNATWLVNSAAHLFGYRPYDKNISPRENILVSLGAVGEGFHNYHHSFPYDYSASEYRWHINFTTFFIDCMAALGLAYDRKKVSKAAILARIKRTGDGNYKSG

First: CNC(=O)c1ccc(-c2cc(C(=O)N3CCC(c4ccccc4)CC3)no2)cc1 [Compound 304, N-methyl-4-[3-(4-phenylpiperidine-1-carbonyl)isoxazol-5-yl]benzamide]
Second: CNC(=O)c1ccc(-c2cc(C(=O)N3CCC(F)(c4ccccc4)CC3)no2)cc1 [Compound 321]
The IC50 of the first is lower: 0.38 µM for the first, greater than 45 µM for the second. The first is the more potent here.

`O=C(c1cc(-c2ccccc2)on1)N1CC=C(c2cc(F)ccc2Cl)CC1` [Compound 305] and `O=C(c1cc(-c2ccc3c(c2)OCO3)on1)N1CC=C(c2cc(F)ccc2Cl)CC1` [Compound 306, [5-(1,3-benzodioxol-5-yl)isoxazol-3-yl]-[4-(2-chloro-5-fluoro-phenyl)-3,6-dihydro-2H-pyridin-1-yl]methanone] are within 1.5-fold of each other in IC50: 4.8 µM for the first, 3.27 µM for the second.

`O=C(c1cc(-c2ccccc2)on1)N1CCC(c2cccc(F)c2)CC1` [Compound 307, [4-(3-fluorophenyl)-1-piperidyl]-(5-phenylisoxazol-3-yl)methanone] and `O=C(c1cc(-c2ccccc2)on1)N1CCC(c2cccc(F)c2)C1` (stereo not drawn) [Compound 339] cannot be ordered by IC50: greater than 45 µM for the first, greater than 45 µM for the second.

`O=C(c1cc(-c2ccc3c(c2)OCO3)on1)N1CCC(c2cccc(F)c2)CC1` [Compound 309, [5-(1,3-benzodioxol-5-yl)isoxazol-3-yl]-[4-(3-fluorophenyl)-1-piperidyl]methanone] and `O=C(c1cc(-c2ccc3c(c2)OCO3)on1)N1CCCC1c1cccc(F)c1` (stereo not drawn) [Compound 367] cannot be ordered by IC50: greater than 45 µM for the first, greater than 45 µM for the second.

`COC1(c2ccccc2)CCN(C(=O)c2cc(-c3ccccc3)on2)CC1` [Compound 323] and `O=C(c1cc(-c2ccccc2)on1)N1CCC2(CCN(c3ccccc3)C2)C1` (stereo not drawn) [Compound 341] cannot be ordered by IC50: greater than 45 µM for the first, greater than 45 µM for the second.

First: N#Cc1ccc(-c2cc(C(=O)N3CCC(c4ccccc4)CC3)no2)c(F)c1 [Compound 325, 3-fluoro-4-(3-(4-phenylpiperidine-1-carbonyl)isoxazol-5-yl)benzonitrile]
Second: O=C(c1cc(-c2ccccc2Cl)on1)N1CCC(c2ccccc2)C1 (stereo not drawn) [Compound 333]
The IC50 of the first is lower: 0.16 µM for the first, greater than 45 µM for the second.

First: O=C(c1cc(-c2ccc3c(c2)OCO3)on1)N1CCC[C@H]1c1ccccc1 [Compound 327]
Second: O=C(c1cc(-c2ccc3c(c2)OCO3)on1)N1CCCC1c1ccccc1 (stereo not drawn) [Compound 354]
The IC50 of the first is lower: 33.5 µM for the first, greater than 45 µM for the second.

`O=C(NC1CCN(c2ccccc2)C1)c1cc(-c2ccco2)on1` (stereo not drawn) [Compound 343] and `O=C(c1cc(-c2ccccn2)on1)N1CCC(c2ccccc2)C1` (stereo not drawn) [Compound 351] cannot be ordered by IC50: greater than 45 µM for the first, greater than 45 µM for the second.

Compared with `CC(C)c1cc(C(=O)N2CCC(c3cccc(F)c3)C2)no1` (stereo not drawn) [Compound 350], `COc1ccc(-c2cc(C(=O)N3CCCC3c3ccccc3F)no2)nc1` (stereo not drawn) [Compound 415] is lower in IC50: greater than 45 µM for the first, 40.2 µM for the second. The second is the more potent here.

`Cc1cccc(C2CCCN2C(=O)c2cc(-c3ccc4c(c3)OCO4)on2)c1` (stereo not drawn) [Compound 355] and `O=C(c1cc(-c2ccc3c(c2)OCO3)on1)N1CCCC1c1cccc(Br)c1` (stereo not drawn) [Compound 388] cannot be ordered by IC50: greater than 45 µM for the first, greater than 45 µM for the second.

`COc1ccc(C2CCCN2C(=O)c2cc(-c3ccc4c(c3)OCO4)on2)cc1` (stereo not drawn) [Compound 356] and `COc1ccc([C@@H]2CCCN2C(=O)c2cc(-c3ccc4c(c3)OCO4)on2)cc1` [Compound 359] cannot be ordered by IC50: greater than 45 µM for the first, greater than 45 µM for the second.

`O=C(c1cc(-c2ccc3c(c2)OCO3)on1)N1CCC[C@@H]1c1ccccc1` [Compound 358] and `O=C(c1cc(-c2ccc3c(c2)OCO3)on1)N1CCOCC1c1ccccc1` (stereo not drawn) [Compound 397] cannot be ordered by IC50: greater than 45 µM for the first, greater than 45 µM for the second.

`COc1ccc([C@H]2CCCN2C(=O)c2cc(-c3ccc4c(c3)OCO4)on2)cc1` [Compound 360] and `O=C(c1cc(-c2ccc3c(c2)OCO3)on1)N1CCCC1c1ccc(F)cc1` (stereo not drawn) [Compound 368] cannot be ordered by IC50: greater than 45 µM for the first, greater than 45 µM for the second.

`COc1ccccc1C1CCCN1C(=O)c1cc(-c2ccc3c(c2)OCO3)on1` (stereo not drawn) [Compound 364] and `O=C(c1cc(-c2ccc3c(c2)OCO3)on1)N1CCCC1c1ccccc1Br` (stereo not drawn) [Compound 390] cannot be ordered by IC50: greater than 45 µM for the first, greater than 45 µM for the second.

Compared with `COc1cccc(C2CCCN2C(=O)c2cc(-c3ccc4c(c3)OCO4)on2)c1` (stereo not drawn) [Compound 365], `N#Cc1cccc(C2CCCN2C(=O)c2cc(-c3ccc4c(c3)OCO4)on2)c1` (stereo not drawn) [Compound 396] is lower in IC50: greater than 45 µM for the first, 38.9 µM for the second.

`C[C@H]1CCCN1C(=O)c1cc(-c2ccc3c(c2)OCO3)on1` [Compound 369] and `C[C@@H]1CCCN1C(=O)c1cc(-c2ccc3c(c2)OCO3)on1` [Compound 370] cannot be ordered by IC50: greater than 45 µM for the first, greater than 45 µM for the second.

`O=C(c1cc(-c2ccc3c(c2)OCO3)on1)N1CCC[C@@H]1C(F)(F)F` [Compound 372] and `O=C(c1cc(-c2ccc3c(c2)OCO3)on1)N1CCC[C@H]1C(F)(F)F` [Compound 373] cannot be ordered by IC50: greater than 45 µM for the first, greater than 45 µM for the second.

First: COc1ccc(C2CCCN2C(=O)c2cc(-c3cccc(OC)c3)on2)cc1 (stereo not drawn) [Compound 375]
Second: COc1ccc(C2CCCN2C(=O)c2cc(-c3ccc(F)c(OC)c3)on2)cc1 (stereo not drawn) [Compound 383]
The IC50 of the first is higher: greater than 45 µM for the first, 36.6 µM for the second. The second is the more potent here.

`COc1ccc(C2CCCN2C(=O)c2cc(-c3ccc(OC(F)(F)F)cc3)on2)cc1` (stereo not drawn) [Compound 380] and `COc1ccc(C2CCCN2C(=O)c2cc(-c3ccc4c(c3)OC(F)(F)O4)on2)cc1` (stereo not drawn) [Compound 393] cannot be ordered by IC50: greater than 45 µM for the first, greater than 45 µM for the second.

Going from `O=C(c1cc(-c2ccccc2)on1)N1CCC[C@@H]1c1ccccc1` [Compound 385] to `O=C(c1cc(-c2ccccc2)on1)N1CCC[C@H]1c1ccccc1` [Compound 386], the IC50 falls from greater than 45 µM to 30.5 µM.

`O=C(c1cc(-c2ccccc2)on1)N1CCCC1c1ccccc1` (stereo not drawn) [Compound 387] and `O=C(c1cc(-c2ccccn2)on1)N1CCC[C@H]1c1ccccc1` [Compound 408] cannot be ordered by IC50: greater than 45 µM for the first, greater than 45 µM for the second.

`O=C(c1cc(-c2ccc3c(c2)OCO3)on1)N1CCCC1c1ccc(Br)cc1` (stereo not drawn) [Compound 389] and `N#Cc1ccc(C2CCCN2C(=O)c2cc(-c3ccc4c(c3)OCO4)on2)cc1` (stereo not drawn) [Compound 395] cannot be ordered by IC50: greater than 45 µM for the first, greater than 45 µM for the second.

`COc1ccc(C2CCCN2C(=O)c2cc(-c3ccc4c(C)nn(C)c4c3)on2)cc1` (stereo not drawn) [Compound 394] and `Cc1nn(C)c2cc(-c3cc(C(=O)N4COCC4c4ccccc4)no3)ccc12` (stereo not drawn) [Compound 419] cannot be ordered by IC50: greater than 45 µM for the first, greater than 45 µM for the second.

Going from `N#Cc1ccccc1-c1cc(C(=O)N2CCC[C@H]2c2ccccc2)no1` [Compound 402] to `N#Cc1cccc(-c2cc(C(=O)N3CCC[C@H]3c3ccccc3)no2)c1` [Compound 403], the IC50 falls from greater than 45 µM to 31.1 µM.

`O=C(c1cc(-c2ccc3c(c2)OCO3)on1)N1CCCC1C1CC1` (stereo not drawn) [Compound 407] and `O=C(c1cc(-c2ccc3c(c2)OCO3)on1)N1CCCC1C1CCOCC1` (stereo not drawn) [Compound 413] cannot be ordered by IC50: greater than 45 µM for the first, greater than 45 µM for the second.

`COc1ccc(-c2cc(C(=O)N3CCC[C@H]3c3ccccc3)no2)cn1` [Compound 410] and `COc1ccc(-c2cc(C(=O)N3CCC[C@H]3c3ccccc3)no2)nc1` [Compound 416] are within 1.5-fold of each other in IC50: 27.1 µM for the first, 23.1 µM for the second.

`O=C(c1cc(-c2ccc3c(c2)OCO3)on1)N1CCCC1c1cc(Br)no1` (stereo not drawn) [Compound 412] and `O=C(c1cc(-c2ccc3c(c2)OCO3)on1)N1CCC[C@H]1c1ccon1` [Compound 426] cannot be ordered by IC50: greater than 45 µM for the first, greater than 45 µM for the second.

First: O=C(c1cc(-c2ccc3c(c2)OCO3)on1)N1C[C@H](F)C[C@H]1c1ccccc1 [Compound 420]
Second: O=C(c1cc(-c2ccc3c(c2)OCO3)on1)N1C[C@@H](F)C[C@H]1c1ccccc1 [Compound 427]
The IC50 of the first is higher: greater than 45 µM for the first, 30 µM for the second. The second is the more potent here.

`O=C(c1cc(-c2ccc3c(c2)OCO3)on1)N1CCCC1c1ncco1` (stereo not drawn) [Compound 423] showed an IC50 greater than 45 µM.
